Data set [1] concerns the target T1, triosephosphate isomerase (TPI) (Giardia intestinalis, UniProt P36186).
T1 construct: His-tag (TEV-cleavable) (cleaved yes); made in house
Particulars: cited from earlier work.

For data set [2], the target named is T1, triosephosphate isomerase (TPI). As to the kind of experiment: Inactivation of recombinant TPI enzyme with compounds. Type of data set: biochemical. How it is done: The TPI from G. lamblia was expressed and purified. […] When the culture reached A600 = 0.8, it was induced using 0.4 mM IPTG and incubated overnight at 30 °C with shaking at 180 rpm. After the bacteria were collected by centrifugation (10,000× g, 15 min) and suspended in 40 mL of lysis buffer, pH 8.0 (50 mM Tris, 50 mM NaCl, 5 mM β-mercaptoethanol, and 1 mM phenylmethylsulfonyl fluoride). The bacterial suspension was disrupted by sonication and centrifuged at 9000× g for 1 h at 4 °C. Protein purification was performed by immobilized metal affinity chromatography (IMAC) using a Profinity Ni^2+ charged resin (Bio-Rad) previously reported by Enriquez-Flores et al.. The His-tag sequence was removed from the TIM by incubation with TEVP at a molar ratio of 30:1 (TPI/TEVP) at room temperature for 17 h in digestion buffer, pH 8.0 (50 mM Tris, 0.5 mM ethylene diamine tetraacetic acid (EDTA), and 1 mM dithiothreitol). The enzyme concentration was spectrophotometrically determined at 280 nm, and the enzyme was used immediately.
Enzyme activity of TPI was determined spectrophotometrically as described by monitoring the conversion of glyceraldehyde-3-phosphate (GAP) to dihydroxyacetone phosphate (DHAP). […] The standard reaction mixture contained 1 mM GAP, 0.2 mM NADH, and 0.9 units/mL of α-GDH in TE buffer (100 mM triethanolamine, 10 mM EDTA, pH 7.4). The reaction was initiated by adding 5 ng/mL of TPI to the reaction mixture.
To determine the inactivation of the TPI enzyme from G. lamblia, we performed inactivation assays of the enzyme in the presence of the synthesized compounds. The compounds’ stock solutions were freshly prepared using 100% dimethyl sulfoxide (DMSO) as the solvent at 25 mM. […] After the incubation period, the enzymatic activity was measured by withdrawing an aliquot of each experimental condition, as described above. The results were expressed in terms of the percentage of activity versus the compound’s concentration.

In data set [3] the test system is Giardia lamblia trophozoites. As to the kind of experiment: Antigiardial activity on G. lamblia trophozoites, trypan blue dye exclusion. Type of data set: cell-based. Particulars: Giardia duodenalis, 48 h at 37 °C, pH 7.4, trypan blue. As to the method: Giardia lamblia WB strain (ATCC number 30957) was grown in a modified TYI-S-33 medium supplemented with 10% fetal bovine serum. The parasite was cultivated in 15 mL screw-capped borosilicate glass tubes containing 13 mL medium. The tubes were incubated on a 15° horizontal slant at 37 °C. Giardia was harvested from confluent culture by chilling the tubes on ice for 5‒10 min to detach cells, followed by centrifugation at 800× g for 5 min.
The antigiardial activity of the prepared compounds was tested as described. One milligram of a test compound was dissolved in 10 L of DMSO and topped up with 1 mL growth medium. The solution was filter-sterilized using 0.22-m syringe filters and the appropriate volumes of the solutions were taken to prepare the concentration of each compound in 1.5 mL microtubes. For each preparation, concentrations of 500, 250, 125, 62, and 31 µg/mL were prepared in a final volume of 1.5 mL. Each tube was inoculated with 5 × 10^4 trophozoites of G. lamblia and then incubated for 48 h at 37 °C. After incubation, 75 L of the treated trophozoites were subcultured individually for another 48 h in a fresh medium free of compounds. At the end of this period, the viable trophozoites were counted. Each compound was assayed in duplicate in three independent experiments. In each assay, appropriate controls were also tested, including a sample without compound and another with DMSO.
The parasites in each tube were counted using a standard hemocytometer at 10× objective. In each count, trypan blue was employed to distinguish live parasites from dead ones. To permit detachment of Giardia, the tubes were placed on ice for 10 min and the parasites were then centrifuged at 800× g for 10 min. The supernatant was discarded and 1 mL fresh medium was added to each tube. The final suspension was prepared by mixing 25 μL of the parasite suspension in each tube with 100 μL of 0.4% trypan blue in phosphate-buffered saline (PBS). The 50% inhibitory concentration (IC50) was employed as a parameter for biological activity. The IC50 is the concentration of compounds that cuts the number of parasites to half that in the negative control (growth medium + DMSO + parasites). Lastly, the 50% inhibitory concentration (IC50) was calculated.

Data set [4] deals with Giardia lamblia trophozoites. More on the design: method as in PMID 28798383. The following applies: previously reported; cited from earlier work.
Data set [5] deals with T1, triosephosphate isomerase (TPI). On the set-up: method as in PMID 28798383. The following applies: previously reported; cited from earlier work.
Data set [6] has the same target. On the set-up: method as in PMID 28798383. Particulars: BHO2 comparison; cited from earlier work.
For data set [7], the system named is VERO cells. More on the design: method as in PMID 28798383. The following applies: cited from earlier work.

This is an account of results in article PMC7504735, “Enhanced Antigiardial Effect of Omeprazole Analog Benzimidazole Compounds” (Molecules, 2020).

Read-outs that look alike come from different tables or passages of the source. A value given as a limit tells only on which side of the number the result lay.

T1 sequence (P36186 whole entry): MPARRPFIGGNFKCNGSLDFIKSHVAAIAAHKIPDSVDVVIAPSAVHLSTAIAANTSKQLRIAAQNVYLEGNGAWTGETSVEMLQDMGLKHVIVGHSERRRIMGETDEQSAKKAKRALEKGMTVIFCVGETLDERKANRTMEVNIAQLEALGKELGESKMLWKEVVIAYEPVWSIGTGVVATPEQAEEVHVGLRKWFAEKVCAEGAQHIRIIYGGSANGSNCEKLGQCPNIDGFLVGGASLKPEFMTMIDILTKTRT

Consider `COCCCOc1ccnc(C[S+]([O-])c2nc3ccccc3[nH]2)c1C` (stereo not drawn) [rabeprazole], for which, in data set [1] (reported by García-Torres et al.), the “Second-order inactivation constant k2” value was 2.66 M⁻¹ s⁻¹.
A word on the IC50: it is the midpoint of a concentration-inhibition curve. Take `[O-][S+](Cc1ccccn1)c1nc2ccccc2[nH]1` (stereo not drawn) [H-BZM1]: the figures for the IC50 in data set [2] and in data set [3] were above 500 µM and 676 µM, respectively. Moreover, in data set [2] (500 µM compound, 2 h at 37 °C), the “Loss (reduction) of TPI enzyme activity” value amounted to 25%.
For the compound `COc1ccc2[nH]c([S+]([O-])Cc3ncc(C)c(OC)c3C)nc2c1` (stereo not drawn) [Omeprazole], the IC50 in data set [4] is 300 µM; in data set [5] it was 225 µM. Moreover, the “Second-order inactivation constant k2” value in data set [1] (previously reported) is 0.78 M⁻¹ s⁻¹.
`COc1c(C)cnc(C[S+]([O-])c2nc3ccc(C)cc3[nH]2)c1C` (stereo not drawn) [BHO2]: the results for the IC50 in data set [4] and in data set [5] were 120 µM and 64 µM, respectively. In addition, the “Loss of intrinsic fluorescence signal of TPI” value in data set [6] is 25%. Moreover, in data set [1] (previously reported), the “Second-order inactivation constant k2” value is 1.6 M⁻¹ s⁻¹. In addition, the “CC50 for mammal cells (VERO)” value in data set [7] is on record as “millimolar ranges”.
